The supplement of paper PMC10883282
± gives the standard deviation of the averaged measurements.

Test system: HS729
Experiment: relative viability vs DMSO control (72 h) (fraction); higher = more viable cells
How it was run: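 Sarcoma cell lines were seeded in 384-well plates at densities chosen for 80–90% confluence, then 24 h later given 2.5 µl of serially diluted compound drawn from source plates spanning 10 mM to 0.0002 mM. They were held 72 h at 37 °C, 5% CO2, with 0.1% DMSO vehicle and a 5 µM positive control included. Relative viability was read with ATPLite as percent growth and averaged over up to triplicate wells. Rescaling placed full at 1 and none at 0.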

Structure (SMILES)	relative viability (0.00017 µM)	relative viability (0.00051 µM)	relative viability (0.00152 µM)	relative viability (0.00457 µM)	relative viability (0.01372 µM)	relative viability (0.04115 µM)	relative viability (0.1235 µM)	relative viability (0.3704 µM)	relative viability (1.111 µM)	relative viability (3.333 µM)	relative viability (10 µM)
O=C(Nc1cnn2ccc(N3CCC[C@@H]3c3cc(F)ccc3F)nc12)N1CC[C@H](O)C1 [Larotrectinib]	1.07 ± 0.041	0.958 ± 0.062	0.895 ± 0.033	0.874 ± 0.029	0.939 ± 0.019	0.887 ± 0.074	0.936 ± 0.021	0.905 ± 0.095	0.85 ± 0.013	0.84 ± 0.094	0.849 ± 0.02
COCc1c(-c2cc3cc(C)cc(OC)c3s2)c2c(N)ncnn2c1CN1CCNC(=O)C1 [Rogaratinib]	1.06 ± 0.024	0.957 ± 0.068	0.967 ± 0.036	0.91 ± 0.052	0.92 ± 0.11	0.882 ± 0.034	0.755 ± 0.041	0.645 ± 0.037	0.582 ± 0.039	0.485 ± 0.031	0.348 ± 0.024
Cn1cnc2c(F)c(Nc3ccc(Br)cc3F)c(C(=O)NOCCO)cc21 [Binimetinib]	1.07 ± 0.013	1.05 ± 0.063	1.06 ± 0.12	1.01 ± 0.077	0.986 ± 0.035	0.933 ± 0.052	0.898 ± 0.019	0.906 ± 0.023	0.906 ± 0.046	0.856 ± 0.013	0.811 ± 0.012
Cn1cc(-c2cc3c(N4CCN(c5ncc([C@@](C)(N)c6ccc(F)cc6)cn5)CC4)ncnn3c2)cn1 [Avapritinib]	0.909 ± 0.046	0.949 ± 0.023	0.9313 ± 0.0083	0.916 ± 0.037	0.909 ± 0.025	0.899 ± 0.077	0.864 ± 0.093	0.822 ± 0.084	0.814 ± 0.11	0.819 ± 0.086	0.802 ± 0.13
C[C@]1(O)C[C@@H](c2nc(-c3ccc4ccc(-c5ccccc5)nc4c3)c3c(N)nccn32)C1 [Linsitinib]	1.04 ± 0.051	1.02 ± 0.073	0.996 ± 0.053	0.969 ± 0.026	0.921 ± 0.033	0.842 ± 0.012	0.757 ± 0.047	0.655 ± 0.07	0.588 ± 0.047	0.577 ± 0.055	0.465 ± 0.049
Cc1cc(Nc2ncnc3ccc(NC4=NC(C)(C)CO4)cc23)ccc1Oc1ccn2ncnc2c1 [Tucatinib]	1.05 ± 0.04	1.05 ± 0.028	1.06 ± 0.029	0.987 ± 0.06	0.974 ± 0.032	0.965 ± 0.061	0.967 ± 0.015	0.963 ± 0.032	0.957 ± 0.034	0.924 ± 0.071	0.909 ± 0.056
Nc1cc(C(F)(F)F)c(-c2cc(N3CCOCC3)nc(N3CCOCC3)n2)cn1 [Buparlisib]	0.937 ± 0.034	0.95 ± 0.015	0.936 ± 0.046	0.906 ± 0.083	0.902 ± 0.062	0.89 ± 0.012	0.812 ± 0.052	0.702 ± 0.059	0.568 ± 0.053	0.327 ± 0.023	0.274 ± 0.026
C[C@@H]1CCN(C(=O)CC#N)C[C@@H]1N(C)c1ncnc2[nH]ccc12 [Tofacitinib]	1.03 ± 0.017	0.957 ± 0.029	0.936 ± 0.031	0.927 ± 0.036	0.889 ± 0.036	0.835 ± 0.065	0.802 ± 0.029	0.828 ± 0.013	0.861 ± 0.03	0.846 ± 0.02	0.75 ± 0.059
COc1cc2/c(=N/c3ccc(Br)cc3F)nc[nH]c2cc1OCC1CCN(C)CC1 [Vandetanib]	0.915 ± 0.04	0.896 ± 0.083	0.899 ± 0.031	0.8994 ± 0.0041	0.871 ± 0.022	0.843 ± 0.047	0.857 ± 0.026	0.834 ± 0.068	0.746 ± 0.055	0.663 ± 0.03	0.028 ± 0.0075
CCCS(=O)(=O)Nc1ccc(F)c(C(=O)c2c[nH]c3ncc(-c4ccc(Cl)cc4)cc23)c1F [Vemurafenib]	0.9411 ± 0.0078	0.97 ± 0.024	0.949 ± 0.051	0.949 ± 0.05	0.962 ± 0.021	0.915 ± 0.03	0.955 ± 0.031	0.908 ± 0.013	0.9276 ± 0.0087	0.856 ± 0.065	0.73 ± 0.016
C=CC(=O)N1CCC([C@@H]2CCNc3c(C(N)=O)c(-c4ccc(Oc5ccccc5)cc4)nn32)CC1 [Zanubrutinib]	1.06 ± 0.046	1.07 ± 0.06	1.05 ± 0.061	1.05 ± 0.072	1.06 ± 0.082	1.04 ± 0.099	1.06 ± 0.062	1.03 ± 0.095	0.961 ± 0.094	1.02 ± 0.074	0.873 ± 0.077
CC(=O)Nc1cccc(-n2c(=O)n(C3CC3)c(=O)c3c(Nc4ccc(I)cc4F)n(C)c(=O)c(C)c32)c1 [Trametinib]	1.05 ± 0.081	0.991 ± 0.036	0.918 ± 0.066	0.941 ± 0.051	0.789 ± 0.021	0.766 ± 0.013	0.73 ± 0.031	0.661 ± 0.018	0.638 ± 0.029	0.628 ± 0.033	0.611 ± 0.031
C=CC(=O)N1CCC[C@@H](n2nc(-c3ccc(Oc4ccccc4)cc3)c3c(N)ncnc32)C1 [Ibrutinib]	1.04 ± 0.018	1.01 ± 0.051	0.942 ± 0.027	0.9505 ± 0.0054	0.972 ± 0.088	0.927 ± 0.063	0.907 ± 0.014	0.926 ± 0.03	0.94 ± 0.05	0.907 ± 0.068	0.762 ± 0.03
Cc1ccc(F)c(NC(=O)Nc2ccc(-c3cccc4[nH]nc(N)c34)cc2)c1 [Linifanib]	1.02 ± 0.065	0.958 ± 0.072	0.937 ± 0.052	0.943 ± 0.077	0.958 ± 0.052	0.896 ± 0.033	0.83 ± 0.033	0.783 ± 0.018	0.7353 ± 0.0054	0.762 ± 0.049	0.689 ± 0.055
CC[C@H](Nc1ncnc2[nH]cnc12)c1nc2cccc(F)c2c(=O)n1-c1ccccc1 [Idelalisib]	1.07 ± 0.061	1.07 ± 0.073	1.03 ± 0.055	1.05 ± 0.023	1.01 ± 0.038	0.987 ± 0.018	0.947 ± 0.049	0.919 ± 0.035	0.905 ± 0.05	0.843 ± 0.036	0.704 ± 0.011
CC(C)(C)c1cc(NC(=O)Nc2ccc(-c3cn4c(n3)sc3cc(OCCN5CCOCC5)ccc34)cc2)no1 [Quizartinib]	1.03 ± 0.1	0.973 ± 0.047	1 ± 0.11	0.976 ± 0.12	1.01 ± 0.084	0.953 ± 0.062	1.01 ± 0.12	0.873 ± 0.069	0.894 ± 0.12	0.873 ± 0.061	0.929 ± 0.061
CNC(=O)c1cc(Oc2ccc(NC(=O)Nc3ccc(Cl)c(C(F)(F)F)c3)c(F)c2)ccn1 [Regorafenib]	1.08 ± 0.027	1.07 ± 0.04	1.03 ± 0.048	1.02 ± 0.046	0.945 ± 0.093	0.9469 ± 0.0076	0.98 ± 0.069	0.845 ± 0.014	0.824 ± 0.039	0.809 ± 0.014	0.651 ± 0.014
CNC(=O)c1ccc(-c2cnc3ncc(Cc4ccc5ncccc5c4)n3n2)cc1F [Capmatinib]	0.949 ± 0.061	0.94 ± 0.025	0.945 ± 0.027	0.956 ± 0.053	0.935 ± 0.021	0.956 ± 0.023	0.949 ± 0.029	0.921 ± 0.054	0.924 ± 0.043	0.953 ± 0.087	0.906 ± 0.066
